Test results: patent publication US20240173419A1, “CDK2 DEGRADERS AND USES THEREOF” (Kymera Therapeutics, Inc., priority 2022, published 2024)

Target: T1, CDK2 (Homo sapiens, UniProt P24941)
T1 construct: endogenous in cells; host or cells: MKN1 cells
Experiment: CDK2 degradation in MKN1 cells (AlphaLISA)
Type: cell-based
Design: key to CDK2 degradation 14 h: Mean external-Abs DC50 (nM): A (<100 nM); B (≥100-500 nM); C (>500-1000 nM); D (>1000 nM); E (not achieved)
Conditions: 14 h incubation; for DC50: read-out: CDK2 degradation 14 h: Mean external-Abs DC50
Experimental: Degradation of CDK2 in MKN1 cells was measured using AlphaLISA technology (PerkinElmer ALSU-TCDK2-A10K). MKN1 cells were maintained in RPMI1640 medium containing 10% FBS+1× penn/strep. Cells were seeded in 96-well plates (Corning 3599) at a density of 2e4 cells per well in 80 μL of fresh complete growth medium. Cells were incubated overnight at 37° C., 5% CO2. Compounds were then added to the cell assay plates with a final top concentration of 10 μM in a 1:5 dilution series with a total of 11 doses (0.001 nM-10 μM). The final volume per well was 160 μL and the final DMSO concentration was 0.1%. Additionally, wells containing no cells and only complete growth medium were also maintained on the cell assay plates (‘no cell’ wells) and processed along with experimental wells. After 14 hour-incubation at 37° C., 5% CO2, the medium was removed and the cells were washed once with 100 μL of 1×PBS. Following removal of PBS, 40 μL of 1× Lysis Buffer containing 1× protease and phosphatase inhibitors (Roche 4693116001; Roche 4906837001) were added to each well. The cell assay plate was agitated on a plate shaker at 350 rpm for 10 minutes at room temperature. 10 μL of each cell lysate were transferred to a 384-well plate (PerkinElmer 6007290). 10 μL of control lysates (from PerkinElmer ALSU-TCDK2-A10K kit) were added to separate wells to generate a standard curve. Activation Buffer was prepared by diluting 25-fold in combined Reaction Buffer 1 and Reaction Buffer 2. Acceptor Beads were diluted 50-fold in combined Reaction Buffers. 5 μL of Acceptor Mix were added to each well. The plate was sealed with Topseal-Aadhesive film, covered with foil, and incubated in the dark for 1 hour at room temperature. Under subdued light, the Donor Beads were diluted 50-fold in Dilution Buffer. 5 μL of Donor Mix were added to each well under subdued light. The plate was sealed with Topseal-A adhesive film, covered with foil, and incubated in the dark for 1 hour at room temperature. Under subdued light, the plates were analyzed on an EnVision Microplate Reader (PerkinElmer Model 2009-0030). The average signal from ‘no cell’ wells was subtracted from the signal in experimental wells prior to calculating Alpha signal for test compounds and negative control (0.100 DMSO). The data were analyzed using Xlfit (v5.3. 1.3) and the dose-dependent CDK2 degradation data were fit using a four-parameter logistic model to calculate DC50.

Structure (SMILES) | CDK2 degradation 14 h: Average Dmax % | CDK2 degradation 14 h: Mean external-Abs DC50 (nM) | DC50
Cc1cc(S(=O)(=O)C2CC3(CCN(CC4CCN(c5ccc6c(c5F)n(C)c(=O)n6C5CCC(=O)NC5=O)CC4)CC3)C2)ccc1Nc1ncc2cc(Cl)c(=O)n(C3CCOC3)c2n1 (stereo not shown) [I-129] | C (C (>25% -50%)) | E | 
Cc1cc(S(=O)(=O)C2CC3(CCN(CC4CCN(c5ccc6c(c5F)n(C)c(=O)n6C5CCC(=O)NC5=O)CC4)CC3)C2)ccc1Nc1ncc2cc(Cl)c(=O)n(C3CCOCC3)c2n1 (stereo not shown) [I-130] | D (D (<25%)) |  | > 1000 nM
Cc1cc(S(=O)(=O)N2CCC(C(F)(F)CN3CCN(c4cccc5c4n(C)c(=O)n5C4CCC(=O)NC4=O)CC3)CC2)ccc1Nc1ncc2cc(Cl)c(=O)n(C3CCCC3)c2n1 (stereo not shown) [I-163] | B (B (>50% -75%)) |  | > 1000 nM
Cc1cc(S(=O)(=O)C2CC3(CCN(CC4CCN(c5ccc(NC6CCC(=O)NC6=O)c6ccccc56)CC4)CC3)C2)ccc1Nc1ncc2ccc(=O)n(C(C)C)c2n1 (stereo not shown) [I-206] | B (B (>50% -75%)) |  | 100 to 500 nM
Cc1cc(S(=O)(=O)C2CC3(CCN(C(=O)COC4CN(c5ccc6c(c5F)n(C)c(=O)n6C5CCC(=O)NC5=O)C4)CC3)C2)ccc1Nc1ncc2ccc(=O)n(C3CCCC3)c2n1 (stereo not shown) [I-259] | D (D (<25%)) |  | > 1000 nM
Cc1cc(S(=O)(=O)N2CCC(Cn3cnc4c3CCN(c3ccc5c(c3F)n(C)c(=O)n5C3CCC(=O)NC3=O)C4)CC2)ccc1Nc1ncc2ccc(=O)n(C3CCCC3)c2n1 (stereo not shown) [I-280] | C (C (>25% -50%)) |  | > 1000 nM
Cc1cc(S(=O)(=O)C2CC3(CCN(CC4CCN(c5cnc6c(c5)c(C)cn6C5CCC(=O)NC5=O)CC4)CC3)C2)ccc1Nc1ncc2cc(Cl)c(=O)n(C3CCCC3)c2n1 (stereo not shown) [I-305] | A (A (>75% o)) |  | 100 to 500 nM
CCOc1cc(NC2CCC(=O)NC2=O)ccc1N1CCC(CN2CCC3(CC2)CC(S(=O)(=O)c2ccc(Nc4ncc5cc(Cl)c(=O)n(C6CCCC6)c5n4)c(C)c2)C3)CC1 (stereo not shown) [I-309] | A (A (>75% o)) |  | 100 to 500 nM
Cc1cc(S(=O)(=O)C2CC3(CCN(CC4CCN(c5cccc(NC6CCC(=O)NC6=O)c5C)CC4)CC3)C2)ccc1Nc1ncc2cc(Cl)c(=O)n(C3CCCC3)c2n1 (stereo not shown) [I-332] | A (A (>75% o)) |  | 100 to 500 nM
Cc1cc(S(=O)(=O)N2CCC(N(CC(F)F)CC3CCN(c4cccc5c4n(C)c(=O)n5C4CCC(=O)NC4=O)CC3)CC2)ccc1Nc1ncc2cc(Cl)c(=O)n(C3CCCC34CC4)c2n1 (stereo not shown) [I-353] | D (D (<25%)) |  | > 1000 nM
Cc1cc(S(=O)(=O)N2CCC(CN(CC(F)(F)F)C3CCN(c4cccc5c4n(C)c(=O)n5C4CCC(=O)NC4=O)CC3)CC2)ccc1Nc1ncc2cc(Cl)c(=O)n(C3CCCC34CC4)c2n1 (stereo not shown) [I-354] | D (D (<25%)) |  | > 1000 nM
Cc1cc(S(=O)(=O)N2CCC(N(C)CC3CCN(c4cccc5c4n(C)c(=O)n5C4CCC(=O)NC4=O)CC3)C(F)(F)C2)ccc1Nc1ncc2cc(Cl)c(=O)n(C3CCCC34CC4)c2n1 (stereo not shown) [I-355] | D (D (<25%)) |  | > 1000 nM
Cc1cc(S(=O)(=O)N2CCC(CN(CC(F)F)C3CCN(c4cccc5c4n(C)c(=O)n5C4CCC(=O)NC4=O)CC3)CC2)ccc1Nc1ncc2cc(Cl)c(=O)n(C3CCCC34CC4)c2n1 (stereo not shown) [I-356] | D (D (<25%)) |  | > 1000 nM
Cc1cc(S(=O)(=O)N2CCC(N(C)CC3(F)CCN(c4cccc5c4n(C)c(=O)n5C4CCC(=O)NC4=O)CC3)CC2)ccc1Nc1ncc2cc(Cl)c(=O)n(C3CCCC34CC4)c2n1 (stereo not shown) [I-357] | B (B (>50% -75%)) | E | 
Cc1cc(S(=O)(=O)N2CCC(F)(CN(C)C3CCN(c4cccc5c4n(C)c(=O)n5C4CCC(=O)NC4=O)CC3)CC2)ccc1Nc1ncc2cc(Cl)c(=O)n(C3CCCC34CC4)c2n1 (stereo not shown) [I-358] | B (B (>50% -75%)) |  | 500 to 1000 nM
COc1ccc2c(c1N1CCC(N(C)CC3CCN(S(=O)(=O)c4ccc(Nc5ncc6cc(Cl)c(=O)n(C(C)C)c6n5)c(C)c4)CC3)CC1)n(C)c(=O)n2C1CCC(=O)NC1=O (stereo not shown) [I-379] | A (A (>75% o)) |  | < 100 nM
Cc1cc(S(=O)(=O)N2CCC3(CCN(c4cccc5c4n(C)c(=O)n5C4CCC(=O)NC4=O)CC3)CC2)ccc1Nc1ncc2cc(Cl)c(=O)n(C(C)C)c2n1 (stereo not shown) [I-380] | D (D (<25%)) |  | > 1000 nM
Cc1cc(S(=O)(=O)N2CCC3(CCN(CC4CCN(c5ccc6c(c5)n(C)c(=O)n6C5CCC(=O)NC5=O)CC4)CC3)CC2)ccc1Nc1ncc2cc(Cl)c(=O)n(C3CCCC3)c2n1 (stereo not shown) [I-381] | A (A (>75% o)) |  | < 100 nM

Results, then the molecule that gave them:

CDK2 degradation 14 h: Average Dmax % | CDK2 degradation 14 h: Mean external-Abs DC50 (nM) | DC50 | Structure (SMILES)
B (B (>50% -75%)) |  | < 100 nM | Cc1cc(S(=O)(=O)C2CC3(CCN(CC4CCN(c5ccc(NC6CCC(=O)NC6=O)cc5F)CC4)CC3)C2)ccc1Nc1ncc2cc(Cl)c(=O)n(C3CCCC3)c2n1 (stereo not shown) [I-152]
A (A (>75% o)) |  | < 100 nM | Cc1cc(S(=O)(=O)N[C@H]2C[C@H](N3CCN(CC4CCN(c5ccc6c(c5)n(C)c(=O)n6C5CCC(=O)NC5=O)CC4)CC3)C2)ccc1Nc1ncc2cc(Cl)c(=O)n(C(C)C)c2n1 (stereo partly shown) [I-203]
A (A (>75% o)) |  | < 100 nM | Cc1cc(S(=O)(=O)N[C@H]2C[C@H](N3CCN(CC4CCN(c5ccc(NC6CCC(=O)NC6=O)cc5C)CC4)CC3)C2)ccc1Nc1ncc2ccc(=O)n(C3CCCC3)c2n1 (stereo partly shown) [I-276]
A (A (>75% o)) |  | < 100 nM | Cc1cc(S(=O)(=O)C2CC3(CCN(CC4CCN(c5ccc6c(c5F)n(C)c(=O)n6C5CCC(=O)NC5=O)CC4)CC3)C2)ccc1Nc1ncc2cc(Cl)c(=O)n(C(C)C3CC3)c2n1 (stereo not shown) [I-285]
A (A (>75% o)) |  | < 100 nM | Cc1cc(S(=O)(=O)C2CC3(CCN(CC4CCN(c5ccc6c(c5F)n(C)c(=O)n6C5CCC(=O)NC5=O)CC4)CC3)C2)ccc1Nc1cc2c(ccc(=O)n2C2CCCC2)cn1 (stereo not shown) [I-286]
A (A (>75% o)) |  | < 100 nM | Cc1cc(S(=O)(=O)N2CCC(CCN3CCN(c4ccc5c(c4F)n(C)c(=O)n5C4CCC(=O)NC4=O)CC3)CC2)ccc1Nc1ncc2ccc(=O)n(C3CCCC3)c2n1 (stereo not shown) [I-287]
A (A (>75% o)) |  | < 100 nM | Cc1cc(S(=O)(=O)C2CC3(CCN(CC4CCN(c5ccc6c(oc(=O)n6C6CCC(=O)NC6=O)c5F)CC4)CC3)C2)ccc1Nc1ncc2cc(Cl)c(=O)n(C3CCCC3)c2n1 (stereo not shown) [I-302]
A (A (>75% o)) |  | < 100 nM | Cc1cc(S(=O)(=O)NCCOC2CCC(CN3CCN(c4ccc(NC5CCC(=O)NC5=O)cc4C)CC3)CC2)ccc1Nc1ncc2cc(Cl)c(=O)n(C3CCCC3)c2n1 (stereo not shown) [I-308]
A (A (>75% o)) |  | < 100 nM | Cc1cc(S(=O)(=O)C2CC3(CCN(CC4CCN(c5ccc6c(N7CCC(=O)NC7=O)nn(C)c6c5F)CC4)CC3)C2)ccc1Nc1ncc2cc(Cl)c(=O)n(C3CCCC3)c2n1 [I-325]
A (A (>75% o)) |  | < 100 nM | Cc1cc(S(=O)(=O)C2CC3(CCN(CC4CCN(c5ccc(NC6CCC(=O)NC6=O)c(Cl)c5)CC4)CC3)C2)ccc1Nc1ncc2cc(Cl)c(=O)n(C3CCCC3)c2n1 (stereo not shown) [I-329]
A (A (>75% o)) |  | < 100 nM | Cc1cc(S(=O)(=O)N2CCC(CN(C)C3CCN(c4cccc5c4n(C)c(=O)n5C4CCC(=O)NC4=O)CC3)CC2)ccc1Nc1ncc2cc(C(F)(F)F)c(=O)n(C3CCCC3)c2n1 (stereo not shown) [I-341]
A (A (>75% o)) |  | < 100 nM | Cc1cc(S(=O)(=O)N2CCC(CN(C)C3CCN(c4cccc5c4n(C)c(=O)n5C4CCC(=O)NC4=O)CC3)CC2)ccc1Nc1ncc2cc(F)c(=O)n(C3CCCC3)c2n1 (stereo not shown) [I-342]
A (A (>75% o)) |  | < 100 nM | Cc1cc(S(=O)(=O)NC2CC3(CCN(CC4CCN(c5cccc6c5n(C)c(=O)n6C5CCC(=O)NC5=O)CC4)CC3)C2)ccc1Nc1ncc2cc(Cl)c(=O)n(C3CCCC3)c2n1 (stereo not shown) [I-347]
A (A (>75% o)) |  | < 100 nM | Cc1cc(S(=O)(=O)N2CCC(N(C)CC3CCN(c4cccc5c4n(C)c(=O)n5C4CCC(=O)NC4=O)CC3)CC2)ccc1Nc1ncc2cc(Cl)c(=O)n(C3CCCC34CC4)c2n1 (stereo not shown) [I-359]
